In PubChem BioAssay AID2060497 (Molecular Pharmacology Branch, DTP, NCI, 2025):

Tested on: 317291-083-R-J1-PDC complex spheroids, viability
Assay: Anticancer human tumor 317291-083-R-J1-PDC patient-derived soft tissue sarcoma cell line growth inhibition [GQUAD]
Conditions: for IC50: curve of first compound; for viability, T/C: stronger effect = lower value
Outline: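 Multi-cell-type spheroids of tumor cells with HUVEC and mesenchymal stem cells, treated with drug combinations. Concentrations descend in half-log steps from near clinical Cmax, or from 10 microM where Cmax is unknown; viability read-out.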

[1] = second compound 0.0316 µM, first compound 0.0316 µM
[2] = second compound 0.0316 µM, first compound 0.1 µM
[3] = second compound 0.0316 µM, first compound 0.316 µM
[4] = second compound 0.0316 µM, first compound 1 µM
[5] = second compound 0.0316 µM, first compound 3.16 µM
[6] = second compound 0.0316 µM, first compound 10 µM
[7] = second compound 0.1 µM, first compound 0.0316 µM
[8] = second compound 0.1 µM, first compound 0.1 µM
[9] = second compound 0.1 µM, first compound 0.316 µM
[10] = second compound 0.1 µM, first compound 1 µM
[11] = second compound 0.1 µM, first compound 3.16 µM
[12] = second compound 0.1 µM, first compound 10 µM
[13] = second compound 0.316 µM, first compound 0.0316 µM
[14] = second compound 0.316 µM, first compound 0.1 µM
[15] = second compound 0.316 µM, first compound 0.316 µM
[16] = second compound 0.316 µM, first compound 1 µM
[17] = second compound 0.316 µM, first compound 3.16 µM
[18] = second compound 0.316 µM, first compound 10 µM
[19] = second compound 1 µM, first compound 0.0316 µM
[20] = second compound 1 µM, first compound 0.1 µM
[21] = second compound 1 µM, first compound 0.316 µM
[22] = second compound 1 µM, first compound 1 µM
[23] = second compound 1 µM, first compound 3.16 µM
[24] = second compound 1 µM, first compound 10 µM
[25] = second compound 3.16 µM, first compound 0.0316 µM
[26] = second compound 3.16 µM, first compound 0.1 µM
[27] = second compound 3.16 µM, first compound 0.316 µM
[28] = second compound 3.16 µM, first compound 1 µM
[29] = second compound 3.16 µM, first compound 3.16 µM
[30] = second compound 3.16 µM, first compound 10 µM
[31] = second compound 10 µM, first compound 0.0316 µM
[32] = second compound 10 µM, first compound 0.1 µM
[33] = second compound 10 µM, first compound 0.316 µM
[34] = second compound 10 µM, first compound 1 µM
[35] = second compound 10 µM, first compound 3.16 µM
[36] = second compound 10 µM, first compound 10 µM
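Note: spheroids exposed to compounds for one week before readout.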
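Throughout, for viability, T/C: percent viability relative to DMSO vehicle wells taken as 100%.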

COc1ccc([C@@H](O)c2cc(-c3ncnc4cc(N5CCOCC5)ccc34)c(F)cc2Cl)nn1 + Cc1[nH]c2ccc(F)cc2c1-c1nc2c3cccnc3c3ncccc3c2[nH]1
IC50 (second compound 0.0316 µM): 8490 nM | IC50 (second compound 0.1 µM): 7300 nM | IC50 (second compound 0.316 µM): > 10000 nM | IC50 (second compound 1 µM): 5890 nM | IC50 (second compound 3.16 µM): 3910 nM | IC50 (second compound 10 µM): 2250 nM | viability, T/C [1]: 103% | viability, T/C [2]: 91.6% | viability, T/C [3]: 105% | viability, T/C [4]: 79.6% | viability, T/C [5]: 72.2% | viability, T/C [6]: 46.3% | viability, T/C [7]: 102% | viability, T/C [8]: 101% | viability, T/C [9]: 86.8% | viability, T/C [10]: 73.7% | viability, T/C [11]: 69.9% | viability, T/C [12]: 42.6% | viability, T/C [13]: 99.5% | viability, T/C [14]: 95.4% | viability, T/C [15]: 96.6% | viability, T/C [16]: 92.5% | viability, T/C [17]: 86.2% | viability, T/C [18]: 53% | viability, T/C [19]: 90.6% | viability, T/C [20]: 110% | viability, T/C [21]: 88.6% | viability, T/C [22]: 78.5% | viability, T/C [23]: 64.3% | viability, T/C [24]: 39.1% | viability, T/C [25]: 72.4% | viability, T/C [26]: 81.8% | viability, T/C [27]: 76.4% | viability, T/C [28]: 91.7% | viability, T/C [29]: 55.6% | viability, T/C [30]: 25.2% | viability, T/C [31]: 68% | viability, T/C [32]: 66.5% | viability, T/C [33]: 79% | viability, T/C [34]: 54.8% | viability, T/C [35]: 47% | viability, T/C [36]: 16%

Nc1ccn(C2OC(CO)C(O)C2(F)F)c(=O)n1 (stereo not drawn) + CN(C)c1ccc(Nc2c3ccc(NC(=O)CCN4CCCC4)cc3nc3cc(NC(=O)CCN4CCCC4)ccc23)cc1
IC50 (second compound 0.0316 µM): 44.5 nM | IC50 (second compound 0.1 µM): 37.7 nM | IC50 (second compound 0.316 µM): < 31.6 nM | IC50 (second compound 1 µM): < 31.6 nM | IC50 (second compound 3.16 µM): < 31.6 nM | IC50 (second compound 10 µM): < 31.6 nM | viability, T/C [1]: 62.2% | viability, T/C [2]: 21.4% | viability, T/C [3]: 12.5% | viability, T/C [4]: 11.5% | viability, T/C [5]: 13.7% | viability, T/C [6]: 11.4% | viability, T/C [7]: 54.9% | viability, T/C [8]: 23.9% | viability, T/C [9]: 13.7% | viability, T/C [10]: 10.9% | viability, T/C [11]: 10.9% | viability, T/C [12]: 9.57% | viability, T/C [13]: 44.9% | viability, T/C [14]: 27.4% | viability, T/C [15]: 11.9% | viability, T/C [16]: 9.85% | viability, T/C [17]: 9.6% | viability, T/C [18]: 8.28% | viability, T/C [19]: 26.9% | viability, T/C [20]: 27.8% | viability, T/C [21]: 10.5% | viability, T/C [22]: 7.35% | viability, T/C [23]: 7.21% | viability, T/C [24]: 7.95% | viability, T/C [25]: 15.6% | viability, T/C [26]: 7.01% | viability, T/C [27]: 6.98% | viability, T/C [28]: 4.89% | viability, T/C [29]: 4.18% | viability, T/C [30]: 5.05% | viability, T/C [31]: 10.3% | viability, T/C [32]: 3.73% | viability, T/C [33]: 1.83% | viability, T/C [34]: 4.43% | viability, T/C [35]: 2.4% | viability, T/C [36]: 2.72%

CCc1c2c(nc3ccc(O)cc13)-c1cc3c(c(=O)n1C2)COC(=O)[C@]3(O)CC + Cc1cnc(CNC(=O)c2c(=O)c3ccc(N4CCCN(C)CC4)nc3n3c2sc2ccccc23)cn1
IC50 (second compound 0.0316 µM): < 0.999 nM | IC50 (second compound 0.1 µM): < 0.999 nM | IC50 (second compound 0.316 µM): < 0.999 nM | IC50 (second compound 1 µM): < 0.999 nM | IC50 (second compound 3.16 µM): < 0.999 nM | IC50 (second compound 10 µM): < 0.999 nM | viability, T/C (second compound 0.0316 µM, first compound 0.000999 µM): 39.3% | viability, T/C (second compound 0.0316 µM, first compound 0.00316 µM): 18% | viability, T/C (second compound 0.0316 µM, first compound 0.00999 µM): 10.7% | viability, T/C [1]: 7.46% | viability, T/C (second compound 0.0316 µM, first compound 0.0999 µM): 9.54% | viability, T/C [3]: 5.6% | viability, T/C (second compound 0.1 µM, first compound 0.000999 µM): 33.9% | viability, T/C (second compound 0.1 µM, first compound 0.00316 µM): 16% | viability, T/C (second compound 0.1 µM, first compound 0.00999 µM): 11.3% | viability, T/C [7]: 13.6% | viability, T/C (second compound 0.1 µM, first compound 0.0999 µM): 5.29% | viability, T/C [9]: 3.08% | viability, T/C (second compound 0.316 µM, first compound 0.000999 µM): 20.6% | viability, T/C (second compound 0.316 µM, first compound 0.00316 µM): 21.5% | viability, T/C (second compound 0.316 µM, first compound 0.00999 µM): 15.5% | viability, T/C [13]: 9.82% | viability, T/C (second compound 0.316 µM, first compound 0.0999 µM): 7.3% | viability, T/C [15]: 2.31% | viability, T/C (second compound 1 µM, first compound 0.000999 µM): 21.9% | viability, T/C (second compound 1 µM, first compound 0.00316 µM): 25.9% | viability, T/C (second compound 1 µM, first compound 0.00999 µM): 11.1% | viability, T/C [19]: 9.26% | viability, T/C (second compound 1 µM, first compound 0.0999 µM): 12.2% | viability, T/C [21]: 1.09% | viability, T/C (second compound 3.16 µM, first compound 0.000999 µM): 26.1% | viability, T/C (second compound 3.16 µM, first compound 0.00316 µM): 14.9% | viability, T/C (second compound 3.16 µM, first compound 0.00999 µM): 9.17% | viability, T/C [25]: 2.26% | viability, T/C (second compound 3.16 µM, first compound 0.0999 µM): 2.54% | viability, T/C [27]: 0.17% | viability, T/C (second compound 10 µM, first compound 0.000999 µM): 15.2% | viability, T/C (second compound 10 µM, first compound 0.00316 µM): 7.77% | viability, T/C (second compound 10 µM, first compound 0.00999 µM): 8.64% | viability, T/C [31]: 8.52% | viability, T/C (second compound 10 µM, first compound 0.0999 µM): 6.98% | viability, T/C [33]: 0.18%

CC1COCCN1c1cc(C2(O)CC3CCC(C2)O3)c2cnn(-c3ccn[nH]3)c2n1 (stereo not drawn) + Cc1[nH]c2ccc(F)cc2c1-c1nc2c3cccnc3c3ncccc3c2[nH]1
IC50 (second compound 0.0316 µM): 71.4 nM | IC50 (second compound 0.1 µM): 54.7 nM | IC50 (second compound 0.316 µM): 39.2 nM | IC50 (second compound 1 µM): 51.7 nM | IC50 (second compound 3.16 µM): 50.2 nM | IC50 (second compound 10 µM): 33.7 nM | viability, T/C [1]: 84.1% | viability, T/C [2]: 34.8% | viability, T/C [3]: 16% | viability, T/C [4]: 22.8% | viability, T/C [5]: 13.2% | viability, T/C [6]: 3.15% | viability, T/C [7]: 68.5% | viability, T/C [8]: 29.5% | viability, T/C [9]: 13.9% | viability, T/C [10]: 12.8% | viability, T/C [11]: 10.4% | viability, T/C [12]: 3.93% | viability, T/C [13]: 55.7% | viability, T/C [14]: 27.9% | viability, T/C [15]: 14.8% | viability, T/C [16]: 20.1% | viability, T/C [17]: 12.1% | viability, T/C [18]: 3.04% | viability, T/C [19]: 66.4% | viability, T/C [20]: 26.4% | viability, T/C [21]: 18.6% | viability, T/C [22]: 10.8% | viability, T/C [23]: 11.3% | viability, T/C [24]: 2.71% | viability, T/C [25]: 69.7% | viability, T/C [26]: 20.4% | viability, T/C [27]: 10.7% | viability, T/C [28]: 14.3% | viability, T/C [29]: 7.98% | viability, T/C [30]: 2.88% | viability, T/C [31]: 52.3% | viability, T/C [32]: 18.9% | viability, T/C [33]: 14% | viability, T/C [34]: 13.8% | viability, T/C [35]: 10.7% | viability, T/C [36]: 3.52%
